Data: ChEMBL document CHEMBL3301361, “Experimental in vitro DMPK and physicochemical data on a set of publicly disclosed compounds”
In brackets after ≈: the same amount, converted by molar mass.

Test: physchem
Settings: pH 7.4 buffer

Row | SMILES | solubility thermodynamic
1 | O=C(O)c1cc2ccccc2n1Cc1cccc(Cl)c1 | 1200 µM (≈ 344 µg/mL)
2 | O=C(c1ccc(F)cc1)C1CCN(C(=O)N2CCOCC2)CC1 | 1150 µM (≈ 368 µg/mL)
3 | CNC(=O)[C@@H](NC(=O)[C@H](CC(C)C)[C@H](OCc1cccc2cccnc12)C(=O)NO)C(C)(C)C | 1000 µM (≈ 473 µg/mL)
4 | Cc1ccc(Nc2nc(C)nc3c2oc2ccccc23)cc1 | 0.5 µM (≈ 0.145 µg/mL)
5 | CNC(=O)[C@@H](NC(=O)[C@H](CC(C)C)[C@H](Sc1ccc(OC)c(OC)c1)C(=O)NO)C(C)(C)C | 1290 µM (≈ 623 µg/mL)
6 | Cc1ccc2c(c1)-c1ccccc1S(=O)(=O)N2 | 631 µM (≈ 155 µg/mL)
7 | O=S(=O)(Nc1ccncc1)c1ccccc1 | 794 µM (≈ 186 µg/mL)
8 | COc1ccc(N(C)C(=O)c2ccc3nc(-c4ccccc4)c(-c4ccccc4)nc3c2)cc1 | 0.7 µM (≈ 0.312 µg/mL)
9 | O=c1cc(-c2cccnc2)[nH]c2ccccc12 | 1350 µM (≈ 300 µg/mL)
10 | O=C(Nc1ccccc1)Nc1ccncc1 | 1350 µM (≈ 288 µg/mL)
11 | COC[C@H](C)Oc1cc(O[C@@H](C)Cc2ccc(F)cc2)cc(C(=O)Nc2ccc(C(=O)O)cn2)c1 | 1260 µM (≈ 607 µg/mL)
12 | COC[C@H](C)Oc1cc(O[C@@H](C)Cc2ccccc2OC)cc(C(=O)Nc2ccc(C(=O)O)cn2)c1 | 589 µM (≈ 291 µg/mL)
13 | COC[C@H](C)Oc1cc(O[C@@H](C)Cc2cc(F)cc(F)c2)cc(C(=O)Nc2ccc(C(=O)O)cn2)c1 | 646 µM (≈ 323 µg/mL)
14 | COC[C@H](C)Oc1cc(Oc2ccc(OC)cc2)cc(C(=O)Nc2ccc(C(=O)O)cn2)c1 | 1510 µM (≈ 685 µg/mL)
15 | COC[C@H](C)Oc1cc(Oc2cccc(F)c2)cc(C(=O)Nc2ccc(C(=O)O)cn2)c1 | 1380 µM (≈ 608 µg/mL)
16 | COC[C@H](C)Oc1cc(Oc2cccc(N(C)C)c2)cc(C(=O)Nc2ccc(C(=O)O)cn2)c1 | 1350 µM (≈ 628 µg/mL)
17 | Cc1noc(C)c1CCC1CCN(S(=O)(=O)CC2(N(O)C=O)CCOC(C)(C)C2)CC1 (configuration not stated) | 851 µM (≈ 389 µg/mL)
18 | CC(C)Oc1cc(OCCc2ccncc2)cc(C(=O)Nc2ccc(C(=O)O)cn2)c1 | 1070 µM (≈ 452 µg/mL)
19 | CC(=O)N1CCC(NC(=O)c2ccc(Oc3ccc(C#C[C@]4(O)CN5CCC4CC5)cc3)cc2)CC1 | 646 µM (≈ 315 µg/mL)
20 | CCN(C(=O)Cc1ccc(S(C)(=O)=O)cc1)C1CCN(CCC(c2ccccc2)N2CCN(c3ccccc3)CC2)CC1 (configuration not stated) | 692 µM (≈ 417 µg/mL)
21 | CCN(C(=O)Cc1ccc(S(C)(=O)=O)cc1)C1CCN(CCC(c2ccccc2)C2CCN(C(C)=O)CC2)CC1 (configuration not stated) | 1510 µM (≈ 859 µg/mL)
22 | COCCOc1cc2ncnc(Nc3ncc(CC(=O)Nc4cccc(F)c4)s3)c2cc1OC | 0.6 µM (≈ 0.29 µg/mL)
23 | Cc1ccc(NC(=O)c2ccnc(N3CCOCC3)c2)cc1-n1c(C)nc2ccc(N3CCN(C)CC3)cc2c1=O | 851 µM (≈ 471 µg/mL)
24 | Cc1sc(N2CCN(C(=O)[C@@H]3CCCC[C@H]3C(=O)NC3(C#N)CC3)CC2)nc1C(F)(F)F | 1070 µM (≈ 503 µg/mL)
25 | COc1ccc(Cn2c(CCc3c[nH]c4ccccc34)nnc2[C@@H](Cc2c[nH]c3ccccc23)NC(=O)C2CCNCC2)c(OC)c1 | 550 µM (≈ 347 µg/mL)
26 | c1csc(-c2n[nH]c3c2Cc2ccccc2-3)c1 | 0.6 µM (≈ 0.143 µg/mL)

Row | SMILES | solubility thermodynamic
27 | CS(=O)(=O)c1ccc2c3c([nH]c2c1)CCN(C(=O)[C@@H]1CCCC[C@H]1C(=O)NC1(C#N)CC1)C3 | 912 µM (≈ 427 µg/mL)
28 | N#CC1(NC(=O)[C@@H]2CCCC[C@H]2C(=O)N2CCc3[nH]c4ncccc4c3C2)CC1 | 1510 µM (≈ 593 µg/mL)
29 | N#CC1(NC(=O)[C@@H]2CCCC[C@H]2C(=O)N2CCc3oc4ccccc4c3C2)CC1 | 575 µM (≈ 225 µg/mL)
30 | N#CCNC(=O)[C@@H]1CCCC[C@H]1C(=O)N1CCN(c2ccccc2)CC1 | 631 µM (≈ 224 µg/mL)
31 | N#CC1(NC(=O)[C@@H]2CCCC[C@H]2C(=O)N2CCc3[nH]c4ccccc4c3C2)CC1 | 912 µM (≈ 356 µg/mL)
32 | COc1ccc2[nH]c3c(c2c1)CN(C(=O)[C@@H]1CCCC[C@H]1C(=O)NC1(C#N)CC1)CC3 | 813 µM (≈ 342 µg/mL)
33 | Cc1noc2cc(N3CCN(C(=O)[C@@H]4CCCC[C@H]4C(=O)NC4(C#N)CC4)[C@H](C)C3)ccc12 | 603 µM (≈ 271 µg/mL)
34 | CC1(c2c(C(=O)NC3C4CC5CC(C4)CC3C5)cnn2-c2ccc(C(=O)O)cc2)CC1 (configuration not stated) | 661 µM (≈ 277 µg/mL)
35 | CCCSc1c(C(=O)NC2CCCCC2)cnn1C | 1230 µM (≈ 346 µg/mL)
36 | COc1ccc(-c2[nH]nc3c2C(=O)c2ccccc2-3)cc1 | 0.3 µM (≈ 0.0829 µg/mL)
37 | COc1cc2c(Nc3ccc(Cc4ccccc4)cc3)c(C#N)cnc2cc1OCCCN1CCOCC1 | 0.6 µM (≈ 0.305 µg/mL)
38 | O=C(O)COc1ccc(OCCNC[C@H](O)COc2ccccc2)cc1 | 1020 µM (≈ 370 µg/mL)
39 | COCCNS(=O)(=O)c1ccc(Nc2nccc(-c3cnc4ccccn34)n2)cc1 | 0.7 µM (≈ 0.297 µg/mL)
40 | CC(C)(C)c1cc(=O)n(-c2ccccc2)[nH]1 | 708 µM (≈ 153 µg/mL)
41 | Cc1cc(C)cc(-c2[nH]c3sc(C(C)(C)C(=O)N4C5CCC4CC5)cc3c2[C@H](C)CNC(=O)N2CCC(c3ccncc3)CC2)c1 | 0.6 µM (≈ 0.383 µg/mL)
42 | COc1cc2c(Nc3cnc(NC(=O)c4ccccc4)nc3)ncnc2cc1OC[C@@H](O)CN1CCCCC1 | 1510 µM (≈ 802 µg/mL)
43 | O=C1NCCc2c1[nH]c1ccccc21 | 1260 µM (≈ 234 µg/mL)
44 | NC(=O)Nc1sc(-c2ccccc2)cc1C(=O)Nc1ccccc1 | 0.6 µM (≈ 0.202 µg/mL)
45 | CS(=O)(=O)N1CC2(CCN(C(=O)Nc3cnc(-c4ccccc4)cn3)CC2)c2ccccc21 | 0.2 µM (≈ 0.0927 µg/mL)
46 | CS(=O)(=O)c1cccc(CNc2nc(Nc3ccc4c(c3)CCC(=O)N4)ncc2C(F)(F)F)c1 | 0.5 µM (≈ 0.246 µg/mL)
47 | O=C1CSc2ccccc2N1 | 871 µM (≈ 144 µg/mL)
48 | CC(=O)Nc1nc2c(s1)C(=O)NCCC2 | 1350 µM (≈ 304 µg/mL)
49 | CC(=O)Nc1ccc(Br)cc1 | 832 µM (≈ 178 µg/mL)
50 | CN(C)C(=N)c1ccc(C(=O)N2CCN(S(=O)(=O)c3ccc4cc(Br)ccc4c3)CC2)cc1 | 1320 µM (≈ 698 µg/mL)
51 | COc1cc2ncnc(Nc3ccc(Oc4ccccc4)cc3)c2cc1OC | 0.3 µM (≈ 0.112 µg/mL)

Now from value to molecule:

Row | solubility thermodynamic | SMILES
52 | 0.5 µM (≈ 0.264 µg/mL) | Cn1cnc(-c2cccc(NC(=O)Nc3cc(C(F)(F)F)ccc3F)c2)c1-c1cc2c(N)ncnc2s1
53 | 0.1 µM (≈ 0.0365 µg/mL) | CC(C)(C)Cn1c2ccccc2c2cc(NC(=O)N3CCOCC3)ccc21
54 | 1320 µM (≈ 298 µg/mL) | Nc1nc2cc(Cl)ccc2n1CCCO
55 | 759 µM (≈ 269 µg/mL) | O=C(O)c1c(Cl)c2ccccc2n1Cc1ccc(Cl)c(Cl)c1
56 | 1100 µM (≈ 437 µg/mL) | CS(=O)(=O)c1ccc2c(c1)cc(C(=O)O)n2Cc1ccc(Cl)c(Cl)c1
57 | 676 µM (≈ 154 µg/mL) | COc1ccc(NC(=O)c2ccccn2)cc1
58 | 676 µM (≈ 132 µg/mL) | c1ccc(-c2cn3cccnc3n2)cc1
59 | 0.7 µM (≈ 0.164 µg/mL) | Clc1ccc2c(c1)Nc1ccccc1S2
60 | 1020 µM (≈ 254 µg/mL) | Nc1cccc(S(=O)(=O)Nc2ccccc2)c1
61 | 1200 µM (≈ 230 µg/mL) | Nc1nnc(Cc2ccccc2)s1
62 | 0.1 µM (≈ 0.0394 µg/mL) | COCCOc1cc2nncc(Nc3cc(O)c(Cl)cc3F)c2cc1OC
63 | 575 µM (≈ 153 µg/mL) | Nc1n[nH]c(S(=O)(=O)CCCc2ccccc2)n1
64 | 1230 µM (≈ 307 µg/mL) | Clc1ccc(-c2nnc(CNC3CC3)o2)cc1
65 | 1200 µM (≈ 396 µg/mL) | Cn1cc(C(=O)CCCCOc2ccc(C(=O)O)cc2)cc1C=O
66 | 0.5 µM (≈ 0.181 µg/mL) | O=C(Cc1ccc2ccccc2c1)Nc1cc(-c2ccc(Cl)cc2)n[nH]1
67 | 0.4 µM (≈ 0.199 µg/mL) | C#CCN(Cc1ccc2nc(CO)[nH]c(=O)c2c1)c1ccc(C(=O)NCc2cccc([N+](=O)[O-])c2)cc1
68 | 1170 µM (≈ 537 µg/mL) | COC[C@H](C)Oc1cc(Oc2cccc(Cl)c2)cc(C(=O)Nc2ccc(C(=O)O)cn2)c1
69 | 708 µM (≈ 184 µg/mL) | Cc1cc(O)nc(SCC(=O)c2ccccc2)n1
70 | 0.5 µM (≈ 0.176 µg/mL) | O=C(CNC(=O)c1ccc(Cl)cc1)c1ccc(Br)cc1
71 | 912 µM (≈ 238 µg/mL) | CNC(=O)CCc1nc(-c2ccc(OC)cc2)no1
72 | 1020 µM (≈ 174 µg/mL) | Cc1[nH]c2ccccc2c1CC#N
73 | 0.6 µM (≈ 0.333 µg/mL) | CCN(CCO)CCCOc1cc2ncnc(Nc3ncc(CC(=O)Nc4cccc(F)c4)s3)c2cc1OC
74 | 1350 µM (≈ 660 µg/mL) | CNc1cccc(CCOc2ccc(C[C@H](NC(=O)c3c(Cl)cncc3Cl)C(=O)O)cc2)n1

Row | solubility thermodynamic | SMILES
75 | 1050 µM (≈ 433 µg/mL) | CCN1CCC[C@@H](C(=O)N2CCN(C(=O)Nc3ccc(Cl)c(Cl)c3)CC2)C1
76 | 0.1 µM (≈ 0.0404 µg/mL) | COc1cc(OC2CCOCC2)c2c(Nc3ccc(F)c(Cl)c3)ncnc2c1
77 | 646 µM (≈ 279 µg/mL) | CNC(=O)[C@@H](C)N(C)Cc1cc2c(Nc3cccc(Cl)c3F)ncnc2cc1OC
78 | 1000 µM (≈ 568 µg/mL) | COc1cc2c(Nc3cc(CC(=O)Nc4cccc(F)c4F)[nH]n3)ncnc2cc1OCCCN1CCC[C@H]1CO
79 | 0.5 µM (≈ 0.224 µg/mL) | CC(C)(C)CNCCn1c(Sc2nc3cccc(Cl)c3s2)nc2c(N)ncnc21
80 | 759 µM (≈ 360 µg/mL) | CN1CCC(Oc2cc(OCCF)cc3ncnc(Nc4c(Cl)ccc5c4OCO5)c23)CC1
81 | 1350 µM (≈ 530 µg/mL) | Nc1ccccc1NC(=O)c1ccc(-c2ncc(CN3CCC3)cc2Cl)cc1
82 | 1350 µM (≈ 613 µg/mL) | CC(C)N1CCN(Cc2cnc(-c3ccc(C(=O)Nc4ccccc4N)cc3)c(C#N)c2)CC1
83 | 0.1 µM (≈ 0.0514 µg/mL) | C#CCN(Cc1cc2c(=O)[nH]c(C)nc2cc1C)c1ccc(C(=O)NCc2cccc([N+](=O)[O-])c2)c(F)c1
84 | 1380 µM (≈ 416 µg/mL) | O=C(NCc1ccc(C(=O)NO)cc1)OCc1cccnc1
85 | 1260 µM (≈ 202 µg/mL) | Oc1ccc(-n2ccnc2)cc1
86 | 759 µM (≈ 336 µg/mL) | COc1cc2c(Nc3ccc(Cl)cc3F)ncnc2cc1OC/C=C/CN1CCCC1
87 | 0.4 µM (≈ 0.159 µg/mL) | COc1cc(OC)cc(-c2cc3cnc(N)nc3nc2NC(=O)NC(C)(C)C)c1
88 | 0.6 µM (≈ 0.246 µg/mL) | COc1cc2ncnc(Nc3ccc4c(ccn4Cc4ccccc4)c3)c2cc1OC
89 | 1510 µM (≈ 355 µg/mL) | Cc1ccc(SCc2cc(=O)n(C)[nH]2)cc1
90 | 1510 µM (≈ 709 µg/mL) | Cc1nc(-c2c(C)n(Cc3c(F)cccc3F)c(=O)n(C[C@H](N)c3ccccc3)c2=O)cs1
91 | 550 µM (≈ 283 µg/mL) | COc1cc2ncnc(Nc3cccc(Cl)c3F)c2cc1CN(C)C1(C(N)=O)CCN(C(C)C)CC1
92 | 0.3 µM (≈ 0.137 µg/mL) | COc1cc2c(NC(=O)Nc3ccccc3Cl)ncnc2cc1OCC1CCN(C)CC1
93 | 0.1 µM (≈ 0.0444 µg/mL) | C#CCN(Cc1ccc2nc(C)nc(O)c2c1)c1ccc(S(=O)(=O)c2ccccc2)cc1
94 | 0.3 µM (≈ 0.158 µg/mL) | C[C@@H](Oc1cccc2ncnc(Nc3ccc4c(cnn4Cc4cccc(F)c4)c3)c12)C(=O)N1CCOCC1
95 | 0.4 µM (≈ 0.214 µg/mL) | COc1cc2c(Nc3ncc(CC(=O)Nc4ccccc4)s3)ncnc2cc1OCCCN1CCOCC1
96 | 0.5 µM (≈ 0.188 µg/mL) | COc1cc(-c2cnc(N)c(-c3nc4ccccc4[nH]3)c2)cc(OC)c1OC
97 | 1290 µM (≈ 522 µg/mL) | COc1cc2ncnc(Nc3ccc(F)c(Cl)c3)c2cc1OCCCN(C)C
